In patent US7524936B2, “Mitogenic oxygenase regulators” (Emory University, priority 2000, dated 2009):

B1: p67phox: recombinant human cytosolic factor of the phagocyte respiratory-burst oxidase (protein, UniProt P19878 1-526, looked up)
Neutrophil cytosol factor 2: MSLVEAISLWNEGVLAADKKDWKGALDAFSAVQDPHSRICFNIGCMYTILKNMTEAEKAFTRSINRDKHLAVAYFQRGMLYYQTEKYDLAIKDLKEALIQLRGNQLIDYKILGLQFKLFACEVLYNIAFMYAKKEEWKKAEEQLALATSMKSEPRHSKIDKAMECVWKQKLYEPVVIPVGKLFRPNERQVAQLAKKDYLGKATVVASVVDQDSFSGFAPLQPQAAEPPPRPKTPEIFRALEGEAHRVLFGFVPETKEELQVMPGNIVFVLKKGNDNWATVMFNGQKGLVPCNYLEPVELRIHPQQQPQEESSPQSDIPAPPSSKAPGRPQLSPGQKQKEEPKEVKLSVPMPYTLKVHYKYTVVMKTQPGLPYSQVRDMVSKKLELRLEHTKLSYRPRDSNELVPLSEDSMKDAWGQVKNYCLTLWCENTVGDQGFPDEPKESEKADANNQTTEPQLKKGSQVEALFSYEATQPEDLEFQEGDIILVLSKVNEEWLEGECKGKVGIFPKVFVEDCATTDLESTRREV
B2: p47phox: recombinant human cytosolic factor of the phagocyte respiratory-burst oxidase (protein, UniProt P14598 1-390, looked up)
Neutrophil cytosol factor 1: MGDTFIRHIALLGFEKRFVPSQHYVYMFLVKWQDLSEKVVYRRFTEIYEFHKTLKEMFPIEAGAINPENRIIPHLPAPKWFDGQRAAENRQGTLTEYCSTLMSLPTKISRCPHLLDFFKVRPDDLKLPTDNQTKKPETYLMPKDGKSTATDITGPIILQTYRAIANYEKTSGSEMALSTGDVVEVVEKSESGWWFCQMKAKRGWIPASFLEPLDSPDETEDPEPNYAGEPYVAIKAYTAVEGDEVSLLEGEAVEVIHKLLDGWWVIRKDDVTGYFPSMYLQKSGQDVSQAQRQIKRGAPPRRSSIRNAHSIHQRSRKRLSQDAYRRNSVRFLQQRRRQARPGPQSPGSPLEEERQTQRSKPQPAVPPRPSADLILNRCSESTKRKLASAV

What was measured:
[1] = system: Nox 4 enzyme and Nox 5 enzyme; test: cell-free assay for Nox 4 / Nox 5 NADPH-oxidase activity (NADPH-dependent chemiluminescence); format: biochemical, human; conditions: MgCl2 1-5 mM; cell lysate, 200 μM NADPH, 10 μM lucigenin, 37° C.
Protocol: In an alternate and preferred embodiment of the present invention, cells that are stably transfected with Nox 4 (YA28), Nox 5 (YA28) or with empty vector (NEF2) are grown in 10 cm tissue culture plates in medium containing DMEM, 10% calf serum, 100 units/ml penicillin, 100 μg/ml streptomycin, and 1 μg/ml puromycin to approximately 80% confluency. Cells (five tissue culture plates of each cell type) are washed briefly with 5 ml phosphate buffered saline (PBS) then dissociated from the plates with PBS containing 5 mM EDTA. Cells are pelleted by centrifuging briefly at 1000×g.
To permeabilize the cells, freeze thaw lysis is carried out and this is followed by passage of the cell material through a small bore needle. The supernatant is removed and the cells are frozen on dry ice for 15 minutes. […]
The cell lysates are assayed for protein concentration using the BioRad protein assay system. […] The reaction is initiated by adding 1.5 mM NADPH and 75 μM lucigenin to the assay mix to give a final concentration of 200 μM NADPH and 10 μM lucigenin, and the chemiluminescence is monitored immediately. […] The plate is monitored continuously for 60 minutes and the maximal relative luminescence unit (RLU) value for each sample is used for the graph. […]

[2] = system: lysates of NIH 3T3 cells stably transfected with the human Nox 4 gene or human Nox 5 gene; test: NADPH-dependent superoxide generation, lucigenin luminescence assay in cell lysates; format: biochemical; conditions: 30 μg cell lysate, 200 μM NADPH, 500 μM lucigenin
Protocol: In one embodiment of the present invention, NIH 3T3 cells stably transfected with the human Nox 4 gene (SEQ ID NO:1) or human Nox 5 gene (SEQ ID NO:3) are analyzed for superoxide generation using the lucigenin (Bis-N-methylacridinium luminescence assay (Sigma, St. Louis, Mo., Li et al. (1998) J. Biol. Chem. 273, 2015-2023). Cells are washed with cold HANKS' solution and homogenized on ice in HANKS' buffer containing 15% sucrose using a Dounce homogenizer. Cell lysates are frozen immediately in a dry ice/ethanol bath. For the assay, 30 μg of cell lysate is mixed with 200 μM NADPH and 500 μM lucigenin. Luminescence is monitored using a LumiCounter (Packard) at three successive one minute intervals and the highest value was used for comparison. Protein concentration is determined by the Bradford method.
Superoxide generation is monitored in lysates from some of the stably transfected cell lines and is compared with superoxide generation by the untransfected NIH 3T3 cell lysates.

Molecule	enhancement of NADPH-oxidase activity [1]	luminescent signal (superoxide generation) [2]
[Cl-].[Cl-].[Mg+2] [MgCl2]	about 2 fold	
c1ccc2c(c1)[I+]c1ccccc1-2 [diphenylene iodonium, reference compound]		inhibited
superoxide dismutase [reference compound]		inhibited
B1		unaffected
B2		unaffected
